{"source": "patent US6391304B1", "about": "“Peptides derived from the ENV gene of the feline immunodeficiency virus and their applications” (Centre National de la Recherche Scientifique, priority 1997, dated 2002)", "key": {"[1]": {"tested_on": "viral components (SU2 and TM2 peptides, recombinant capsid protein)", "assay": "Antiviral humoral response after the virulence test (ELISA with viral components)", "format": "in vivo", "conditions": "in comparison with the control cats", "method": "(§1) The production on of antibodies is evaluated before the test by means of an ELISA using an immobilized peptide (SU2, SU5, TM2 or TM3-19) and immunoprecipitation. After the test, the seroconversion is monitored by an ELISA using immobilized envelope peptides and a recombinant FTV capsid protein.\n(§2) The ELISA with the immobilized envelope peptides corresponding to the immunogenic domains SU2 and TM2 and with the immobilized recombinant p25 protein (FIV capsid protein) is carried out as described in Avraméas A. et al. (Res. Virol., 1993, 144, 209-218).\n(§3) After the test, the seroconversion against the envelope peptides and the p25 protein is evaluated at serum dilutions of 1/25 and 1/100, respectively.\nAfter testing with the FIV Wo strain, most of the cats show a humoral response with respect to the viral components, as illustrated by the ELISA with the SU2 and TM2 peptides, derived from the external and transmembrane glycoproteins, respectively, and the recombinant capsid protein."}, "SU2 envelope peptide": {"tested_on": "SU2 envelope peptide", "assay": "Seroconversion ELISA after the virulence test, SU2 peptide", "format": "in vivo, cats", "method": "(§4) The cats are subjected to a virulence test, one week after the final immunization, by means of an intraperitoneal inoculation of 10 CID50 of FIV Wo isolate, one CID50 corresponding to the dose capable of infecting 50% of the cats.\nas §1, §2\nMicroplates (Immunolon II, Dynatech) are coated with 0.5 μg/well for the peptides and with 0.1 μg/well for the p25 protein.\nThe tests are carried out in duplicate and the results are expressed as average values.\nas §3\nThe absorbance values (at 405 nm) are corrected by subtraction of the absorbance values obtained by binding with an immobilized control peptide.\nThe tests are normalized with reference to the binding of a mixture of serum from cats infected with FIV with a peptide representing the immunodominant domain of the FIV transmembrane glycoprotein (TM2) (Avraméas A. et al., Res. Virol., 1993, 144, 209-218)."}, "FIV Wo isolate [2]": {"tested_on": "FIV Wo isolate", "assay": "Plasmatic viraemia by isolation of the virus in PBM cell culture", "format": "in vivo, cats", "description": "as §4\nThe plasmatic viraemia is quantified by culturing PBM cells (Ho D. D. et a., N. Engl. J. Med., 1989, 321, 1621-1625).\nThe infection is estimated by determining the p25 by ELISA (Petcheck, IDEXX) in culture supernatants, obtained 14 and 21 days after the inoculation of different volumes of plasma (0.2, 2, 10, 40, 200 or 1000 μl). The final plasmatic dilution giving a positive culture is considered as the limit point.\nThe plasmatic viraemia is expressed as TCDID50/ml of plasma (→doses capable of infecting 50% of the tissue cultures).\nFor the cats immunized with the TM3-19 peptide and the control cats, the plasmatic viral load is evaluated 3 weeks after the test by isolating the virus."}, "[3]": {"tested_on": "envelope glycoproteins of the Wo strain", "assay": "Immunoprecipitation of envelope glycoproteins by sera (infected PBM cells)", "format": "in vivo", "conditions": "PBM cell lysates after acute infection with FIV Wo; group of four cats", "description": "The sera collected on the day of the test (at a dilution of 1/40) are used to immunoprecipitate the envelope glycoproteins derived from the metabolically labelled FL-4 cells and feline mononuclear cells (PBM cells) infected with the FIV Wo strain, as described in G. Pancino et al. (Virology, 1995, 206, 796-806).\nGiven that the TM3-19 peptide, deduced from the Env sequence of the FIV Wo strain, comprises 4 different residues out of 19, relative to the Petaluma sequence, the capacity to immunoprecipitate sera before the test of the cats immunized with the TM3-19 peptide was tested against the envelope glycoproteins of the Wo strain, obtained from PBM cell lysates after acute infection with the FIV Wo strain."}, "FIV Wo isolate [4]": {"tested_on": "FIV Wo isolate", "assay": "Viral load in the tissues by competitive RT-PCR", "format": "in vivo, cats", "conditions": "5 weeks after the test, FIG. 4", "description": "The cats are sacrificed five weeks after the virulence test. The lymphoid organs (spleen, thymus, axial lymphatic ganglia) are recovered and frozen in liquid nitrogen, for extraction of the RNA.\nFrozen spleen and thymus tissues are reduced to powder and immediately dispersed in the lysis buffer provided with the RNA extraction kit (RNeasy, Qiagene), with the aid of a tissue homogenizer (Ultra-Turrax). The frozen axillary lymphatic ganglia are dispersed directly in the lysis buffer; the RNA is then extracted using the RNeasy kit, according to the manufacturer's instructions.\nThe contaminant DNA is removed by hydrolysis with DNase 1 (RQ1. RNase-free DNase, Promega).\nThe viral load in the tissues is evaluated 5 weeks after the test by counting the number of copies of viral RNA in the axillary lymphatic ganglia and in the thymus by competitive RT-PCR.\nGiven that the amplified fragment (amplicon) is located in the intron of the sub-genomic viral RNA, the copies of viral RNA counted in the tissues represent the complete transcripts, which are either intracellular or encapsidated in the extracellular viral particles."}, "[5]": {"conditions": "ELISA, seral dilution 1/25, individual cats"}}, "note": "“And” between values parts separate entries of the source, which are not always exact repeats. Equal entries are not always repeated. Ends that are not written are not given here.", "data": [{"sequence": "KKGLQQLQEWEDWVGWIGN [TM3-19, 19-amino-acid fragment of the TM3 domain of the FIV Wo Env transmembrane glycoprotein (759-777)]", "values": [{"measurement": "development of an antiviral humoral response after the virulence test", "setting": "[1]", "value": "weaker and retarded in 3 cats (346, 348, 349)"}, {"measurement": "antibody response with respect to the SU2 peptide", "setting": "SU2 envelope peptide; 5 weeks after the test", "value": "none of the cats immunized with the TM3-19 peptide developed a detectable antibody response"}, {"measurement": "Binding of the sera to SU2, 3 weeks after the virulence test", "setting": "SU2 envelope peptide; [5]", "value": 0, "unit": "optical density"}, {"measurement": "Binding of the sera to SU2, 4 weeks after the virulence test", "setting": "SU2 envelope peptide; [5]", "value": 0, "unit": "optical density"}, {"measurement": "Binding of the sera to SU2, 5 weeks after the virulence test", "setting": "SU2 envelope peptide; [5]", "value": 0, "unit": "optical density"}, {"measurement": "Plasmatic viraemia, PBMC culture", "setting": "FIV Wo isolate [2]; 3 weeks after the test with 10 CID50 of FIV Wo, individual cats", "value": "1 TCID50/ml of plasma (3×) and 1 × 10^2 TCID50/ml of plasma"}, {"measurement": "reduction in the level of infectious virus in the plasma", "setting": "FIV Wo isolate [2]; three-quarters of the cats, 3 weeks after the test, versus control cats", "value": "about 3 logs"}, {"measurement": "cats whose sera precipitate the envelope protein of the Wo strain", "setting": "[3]", "value": "only the sera of 2 cats (346, 347)"}, {"measurement": "level of viral RNA in the spleen", "setting": "FIV Wo isolate [4]", "value": "particularly low in one cat (348)"}, {"measurement": "levels of viral RNA in the axillary lymphatic ganglia", "setting": "FIV Wo isolate [4]", "value": "lower in three cats (346, 348 and 349)"}]}]}
